From patent US11701364B2, “Agonists of stimulator of interferon genes sting” (The Scripps Research Institute, priority 2018, dated 2023)

The compounds below were run against T1, STING (Stimulator of Interferon Genes) (Homo sapiens, UniProt Q86WV6, G230A/H232R/R293Q/R71H) (assay: ISG-LUC activation assay (ISRE-Luciferase assay in THP-1 Lucia ISG reporter cells)). Conditions: THP-1 Lucia ISG cells, 24 hours, luciferase reporter; read-out: ISG-LUC activation assay (EC50).
T1 construct: host or cells: THP-1-Lucia ISG cells (human monocytic line)
Assay type: cell-based
Description: This has been established using a primary assay involving a human THP-1 cell line carrying an IRF-inducible reporter with 5 copies of the IFN signaling response element. Counter screens, involving alternative reporter constructs, rodent cell-based assays, as well as cGAS and STING knock-out cell lines, are used to eliminate luciferase artifacts and ensure human-rodent cross species reactivity, as well as pathway selectivity. Biochemical assays, involving cGAS enzymatic activity and STING protein binding assays, are used to identify the specific target of identified hits.
THP-1 Lucia ISG cells were resuspended in low-serum growth media (2% FBS) at a density of 5×10^5 cells/ml and treated with test article or vehicle (DMSO). 50 μL of cells were seeded into each well of a 384-well white greiner plates and incubated for 24 hours. To evaluate expression of the luciferase reporter, 30 μl of Quanti-luc (Invivogen) detection reagent was added to each well and luminescence was read using an Envision plate reader (Perkin Elmer) set with an integration time of 0.1 seconds.

T1 sequence (Q86WV6 whole entry R71H/G230A/H232R/R293Q): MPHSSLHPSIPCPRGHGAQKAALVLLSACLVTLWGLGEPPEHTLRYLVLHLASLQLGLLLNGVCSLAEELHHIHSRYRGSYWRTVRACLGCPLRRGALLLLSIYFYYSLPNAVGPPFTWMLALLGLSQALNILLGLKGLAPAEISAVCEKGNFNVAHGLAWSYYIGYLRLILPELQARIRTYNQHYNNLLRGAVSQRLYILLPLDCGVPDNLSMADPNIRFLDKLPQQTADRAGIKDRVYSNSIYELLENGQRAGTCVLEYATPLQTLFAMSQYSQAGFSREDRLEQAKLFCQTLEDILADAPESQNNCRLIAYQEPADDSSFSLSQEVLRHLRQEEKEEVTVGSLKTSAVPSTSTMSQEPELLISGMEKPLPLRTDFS

| Compound | EC50 |
| --- | --- |
| CCOC(=O)c1ccccc1NC(=O)c1ccc(-n2ccnc2)nn1 [Compound 64] | 0.926 µM |
| NC(=O)c1cc(Cl)c(Cl)cc1NC(=O)c1ccc(-n2ccnc2)nn1 [Compound 138] | > 50 µM |
| Cc1ccc(C(=O)O)c(NC(=O)c2ccc(-n3ccnc3)nn2)c1 [Compound 82] | 6.39 µM |
| N=C(N)NCCC[C@H](NC(=O)c1cc(F)c(F)cc1NC(=O)c1ccc(-n2ccnc2)nn1)C(N)=O [Compound 124] | 8.08 µM |
| CCOC(=O)c1c(F)cc(F)c(F)c1NC(=O)c1ccc(-n2ccnc2)nn1 [Compound 148] | 3.68 µM |
| CCc1ccc(NC(=O)c2ccc(-n3ccnc3)nn2)c(C(=O)OC)c1 [Compound 20] | 0.418 µM |
| CCOC(=O)C1=C(NC(=O)c2ccc(-n3ccnc3)nn2)CCC(C)C1 (centres unmarked) [Compound 67] | 2.95 µM |
| COC(=O)c1c(Cl)cc(F)cc1NC(=O)c1ccc(-n2ccnc2)nn1 [Compound 100] | 10.2 µM |
| Cc1ccc2nc(-c3ccc(-n4ccnc4)nn3)oc(=O)c2n1 [Compound 137] | 9.33 µM |
| COC(=O)c1ccccc1NC(=O)c1ccc(-n2cnc(C)c2)nn1 [Compound 93] | > 20 µM |
| COC(=O)c1c(F)cccc1NC(=O)c1ccc(-n2ccnc2)nn1 [Compound 72] | 1.67 µM |
| COC(=O)c1cc(C)c(Cl)cc1NC(=O)c1ccc(-n2ccnc2)nn1 [Compound 61] | 0.124 µM |
| COC(=O)c1cc(Cl)ccc1NC(=O)c1ccc(-n2ccnc2)nn1 [Compound 106] | 0.346 µM |
| COC(=O)c1ncccc1NC(=O)c1ccc(-n2ccnc2)nn1 [Compound 5] | 1.24 µM |
| COC(=O)c1cc(F)c(Br)cc1NC(=O)c1ccc(-n2ccnc2)nn1 [Compound 58] | 0.0606 µM |
| COC(=O)c1c(F)ccc(Cl)c1NC(=O)c1ccc(-n2ccnc2)nn1 [Compound 99] | 11.9 µM |
| O=C(Nc1cc(F)c(C(F)(F)F)cc1C(=O)O)c1ccc(-n2ccnc2)nn1 [Compound 80] | 3.97 µM |
| COC(=O)c1cc(Cl)cc(C)c1NC(=O)c1ccc(-n2ccnc2)nn1 [Compound 97] | ~2.49 µM |
| O=c1oc(-c2ccc(-n3ccnc3)nn2)nc2ccc(S(F)(F)(F)(F)F)cc12 [Compound 161] | > 20 µM |
| COC(=O)c1cc(F)ccc1NC(=O)c1ccc(-n2ccnc2)nn1 [Compound 13] | 0.249 µM |
| CCc1ccc(NC(=O)c2ccc(-n3ccnc3)nn2)c(C(=O)O)c1 [Compound 79] | > 20 µM |

| Compound | EC50 |
| --- | --- |
| COC(=O)c1ccc(C)c(C)c1NC(=O)c1ccc(-n2ccnc2)nn1 [Compound 6] | ~2.76 µM |
| O=c1oc(-c2ccc(-n3ccnc3)nn2)nc2ccc(C(F)(F)F)nc12 [Compound 140] | ~25.1 µM |
| COC(=O)c1cnccc1NC(=O)c1ccc(-n2ccnc2)nn1 [Compound 108] | 3.35 µM |
| O=C(Nc1cc(Cl)c(F)cc1C(=O)O)c1ccc(-n2ccnc2)nn1 [Compound 53] | ~0.625 µM |
| CCOC(=O)C1=C(NC(=O)c2ccc(-n3ccnc3)nn2)CCOC1 [Compound 128] | 4.35 µM |
| O=C(Nc1ccc2ccccc2c1C(O)(C(F)(F)F)C(F)(F)F)c1ccc(-n2ccnc2)nn1 [Compound 121] | 1.83 µM |
| Cc1cc(NC(=O)c2ccc(-n3ccnc3)nn2)c(C(=O)O)cc1C [Compound 111] | 7.25 µM |
| COC(=O)c1ccc(C)cc1NC(=O)c1ccc(-n2ccnc2)nn1 [Compound 15] | 0.294 µM |
| COC(=O)c1nc(OC)ncc1NC(=O)c1ccc(-n2ccnc2)nn1 [Compound 71] | 1.66 µM |
| COC(=O)c1cc(F)c(C)cc1NC(=O)c1ccc(-n2ccnc2)nn1 [Compound 21] | 0.0904 µM |
| COC(=O)c1cc2c(cc1NC(=O)c1ccc(-n3ccnc3)nn1)CCCC2 [Compound 114] | 4.35 µM |
| O=C(Nc1ccccc1C(=O)OC1CCC1)c1ccc(-n2ccnc2)nn1 [Compound 4] | 2.07 µM |
| COC(=O)c1ccccc1NC(=O)c1ccc(-n2cnc(C#N)c2)nn1 [Compound 92] | ~5.26 µM |
| Cc1cc2c(=O)oc(-c3ccc(-n4ccnc4)nn3)nc2cc1F [Compound 33] | < 0.0195 µM |
| Cc1cc2nc(-c3ccc(-n4ccnc4)nn3)oc(=O)c2cc1C [Compound 9] | 0.163 µM |
| Cc1cc(C(=O)O)c(NC(=O)c2ccc(-n3ccnc3)nn2)cc1F [Compound 172] | 1.01 µM |
| COC(=O)c1cccc(C)c1NC(=O)c1ccc(-n2ccnc2)nn1 [Compound 91] | ~5.07 µM |
| CCOC(=O)c1cc[nH]c1NC(=O)c1ccc(-n2ccnc2)nn1 [Compound 110] | 16.9 µM |
| CCOC(=O)C1=C(NC(=O)c2ccc(-n3ccnc3)nn2)CCCC1 [Compound 112] | 1.5 µM |
| O=C(Nc1cc2ccccc2cc1C(=O)O)c1ccc(-n2ccnc2)nn1 [Compound 78] | 4.44 µM |
| COC(=O)c1cc(O)c(F)cc1NC(=O)c1ccc(-n2ccnc2)nn1 [Compound 142] | > 50 µM |

| Compound | EC50 |
| --- | --- |
| COC(=O)C1=C(NC(=O)c2ccc(-n3ccnc3)nn2)CC(C)(C)C1 [Compound 77] | > 50 µM |
| O=C(Nc1cc(F)c(F)cc1C(=O)NO)c1ccc(-n2ccnc2)nn1 [Compound 150] | 12.2 µM |
| Cc1cc(NC(=O)c2ccc(-n3ccnc3)nn2)c(C(=O)O)cc1F [Compound 81] | 2.74 µM |
| Cc1cc2nc(-c3ccc(-n4ccnc4)nn3)oc(=O)c2cc1F [Compound 39] | 0.0308 µM |
| O=C(Nc1cc(Cl)c(Cl)cc1C(=O)O)c1ccc(-n2ccnc2)nn1 [Compound 103] | 0.451 µM |
| O=C(Nc1ccc(F)cc1C(=O)O)c1ccc(-n2ccnc2)nn1 [Compound 158] | > 20 µM |
| COc1ccc(NC(=O)c2ccc(-n3ccnc3)nn2)c(C(=O)O)c1 [Compound 151] | 7.76 µM |
| O=C(Nc1cc2ccccc2nc1C(=O)O)c1ccc(-n2ccnc2)nn1 [Compound 154] | ~10.4 µM |
| Cc1cc(NC(=O)c2ccc(-n3ccnc3)nn2)c(C(=O)OCCCCO)cc1C [Compound 46] | 0.418 µM |
| COc1cc(NC(=O)c2ccc(-n3ccnc3)nn2)c(C(=O)O)cc1F [Compound 54] | 0.248 µM |
| COC(=O)c1cc(C#N)cc(F)c1NC(=O)c1ccc(-n2ccnc2)nn1 [Compound 73] | 2.37 µM |
| Cc1cc(NC(=O)c2ccc(-n3ccnc3)nn2)c(C(N)=O)cc1C [Compound 125] | 9.62 µM |
| COC(=O)c1ncc(F)cc1NC(=O)c1ccc(-n2ccnc2)nn1 [Compound 69] | 2.79 µM |
| COCC(=O)c1nc(Cl)ncc1NC(=O)c1ccc(-n2ccnc2)nn1 [Compound 75] | 1.26 µM |
| CCN(CC)CC(C)(C)NC(=O)c1cc(F)c(F)cc1NC(=O)c1ccc(-n2ccnc2)nn1 [Compound 163] | 16.6 µM |
| COC(=O)c1cc(OC)c(F)cc1NC(=O)c1ccc(-n2ccnc2)nn1 [Compound 28] | 0.0958 µM |
| O=c1oc(-c2ccc(-n3ccnc3)nn2)nc2cc(F)c(OC(F)(F)F)cc12 [Compound 42] | 0.373 µM |
| COC(=O)c1nc(C2CC2)c(F)cc1NC(=O)c1ccc(-n2ccnc2)nn1 [Compound 145] | 1.58 µM |
| COC(=O)c1ncc(C(F)(F)F)cc1NC(=O)c1ccc(-n2ccnc2)nn1 [Compound 152] | ~1.27 µM |
| COC(=O)c1ccc(C2CC2)cc1NC(=O)c1ccc(-n2ccnc2)nn1 [Compound 31] | 0.206 µM |
| CCOC(=O)c1cc2c(nc1NC(=O)c1ccc(-n3ccnc3)nn1)CCN(C)C2 [Compound 116] | 3.46 µM |

| Compound | EC50 |
| --- | --- |
| O=c1oc(-c2ccc(-n3ccnc3)nn2)nc2cc(F)c(F)cc12 [Compound 29] | 0.14 µM |
| COc1ccc2nc(-c3ccc(-n4ccnc4)nn3)oc(=O)c2c1 [Compound 40] | 0.684 µM |
| COC(=O)C1=C(NC(=O)c2ccc(-n3ccnc3)nn2)CC(C)(C)OC1 [Compound 136] | 8.84 µM |
| COc1cc(C(=O)O)c(NC(=O)c2ccc(-n3ccnc3)nn2)cc1F [Compound 170] | 11 µM |
| COC(=O)c1cc(C)ccc1NC(=O)c1ccc(-n2ccnc2)nn1 [Compound 104] | 0.426 µM |
| O=c1oc(-c2ccc(-n3ccnc3)nn2)nc2cc(Cl)c(Cl)cc12 [Compound 35] | 0.0617 µM |
| O=C(Nc1ccccc1-c1noc(O)n1)c1ccc(-n2ccnc2)nn1 [Compound 118] | 3.97 µM |
| COC(=O)c1cc(O)ccc1NC(=O)c1ccc(-n2ccnc2)nn1 [Compound 109] | 8.95 µM |
| Nc1cc(F)c(F)cc1NC(=O)c1ccc(-n2ccnc2)nn1 [Compound 144] | > 50 µM |
| CCc1ccc(NC(=O)c2ccc(-n3ccnc3)nn2)c(C(=O)OC(C)C)c1 [Compound 65] | 1.16 µM |
| COC(=O)c1ccc(OC)cc1NC(=O)c1ccc(-n2ccnc2)nn1 [Compound 105] | 0.192 µM |
| CCOC(=O)C1=C(NC(=O)c2ccc(-n3ccnc3)nn2)CCC(F)(F)C1 [Compound 131] | 3.48 µM |
| COC(=O)c1cc(C#N)c(F)cc1NC(=O)c1ccc(-n2ccnc2)nn1 [Compound 55] | 0.221 µM |
| COC(=O)c1cc(OC(F)(F)F)c(F)cc1NC(=O)c1ccc(-n2ccnc2)nn1 [Compound 44] | 0.573 µM |
| COC(=O)c1cc(Cl)c(Br)c(F)c1NC(=O)c1ccc(-n2ccnc2)nn1 [Compound 60] | 0.0622 µM |
| Cc1cc(C(N)=O)c(NC(=O)c2ccc(-n3ccnc3)nn2)cc1F [Compound 134] | > 50 µM |
| COC(=O)c1cc(C)c(C)cc1NC(=O)c1ccc(-n2ccnc2)nn1 [Compound 11] | 0.103 µM |
| O=C(Nc1cc(C2CC2)c(F)cc1C(=O)O)c1ccc(-n2ccnc2)nn1 [Compound 174] | 10 µM |
| COC(=O)c1ccc(F)cc1NC(=O)c1ccc(-n2ccnc2)nn1 [Compound 16] | 0.684 µM |
| COc1ccc2c(=O)oc(-c3ccc(-n4ccnc4)nn3)nc2c1 [Compound 38] | 0.485 µM |
